Holding throughout (assay type): biochemical
The target in one experiment is T1, HDAC6 (Homo sapiens, UniProt Q9UBN7).
T1 sequence (Q9UBN7 1-1215): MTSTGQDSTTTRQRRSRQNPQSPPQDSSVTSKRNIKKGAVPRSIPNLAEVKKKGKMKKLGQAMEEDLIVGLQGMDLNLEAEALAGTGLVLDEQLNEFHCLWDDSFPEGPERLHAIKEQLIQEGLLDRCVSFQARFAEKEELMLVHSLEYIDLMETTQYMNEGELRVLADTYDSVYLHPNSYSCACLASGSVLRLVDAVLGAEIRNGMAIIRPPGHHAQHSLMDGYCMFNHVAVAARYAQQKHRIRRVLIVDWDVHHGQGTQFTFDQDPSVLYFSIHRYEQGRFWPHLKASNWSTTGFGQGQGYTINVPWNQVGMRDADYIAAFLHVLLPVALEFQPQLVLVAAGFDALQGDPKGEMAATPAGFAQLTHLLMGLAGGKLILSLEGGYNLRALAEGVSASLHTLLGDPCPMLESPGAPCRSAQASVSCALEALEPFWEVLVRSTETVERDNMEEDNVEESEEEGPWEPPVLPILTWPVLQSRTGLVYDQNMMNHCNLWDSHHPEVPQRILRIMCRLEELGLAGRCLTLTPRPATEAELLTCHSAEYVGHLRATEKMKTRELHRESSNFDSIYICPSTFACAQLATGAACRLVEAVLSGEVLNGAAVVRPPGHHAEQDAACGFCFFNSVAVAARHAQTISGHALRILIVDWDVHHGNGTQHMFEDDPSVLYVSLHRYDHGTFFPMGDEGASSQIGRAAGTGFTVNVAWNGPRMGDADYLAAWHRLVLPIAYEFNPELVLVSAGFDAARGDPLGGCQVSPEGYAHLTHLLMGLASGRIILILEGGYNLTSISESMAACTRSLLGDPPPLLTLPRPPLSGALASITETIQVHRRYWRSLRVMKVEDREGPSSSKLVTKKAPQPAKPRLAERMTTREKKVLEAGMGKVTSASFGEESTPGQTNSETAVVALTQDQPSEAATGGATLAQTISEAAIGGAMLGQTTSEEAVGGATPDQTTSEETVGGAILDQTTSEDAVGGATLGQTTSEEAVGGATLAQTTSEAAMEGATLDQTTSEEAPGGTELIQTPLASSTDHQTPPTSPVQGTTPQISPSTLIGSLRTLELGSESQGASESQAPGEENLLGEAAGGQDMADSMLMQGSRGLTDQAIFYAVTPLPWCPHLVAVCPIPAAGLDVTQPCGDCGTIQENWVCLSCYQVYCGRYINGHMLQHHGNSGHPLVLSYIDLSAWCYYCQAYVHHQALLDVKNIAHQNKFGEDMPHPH
Nature of the experiment: HDAC activity assay, HDAC6.

Another experiment has as its target HDAC4 (Homo sapiens, UniProt P56524). Nature of the experiment: HDAC activity assay, HDAC4.
For the next experiment, the target named is T2, HDAC7 (Homo sapiens, UniProt Q8WUI4).
T2 sequence (Q8WUI4 1-952): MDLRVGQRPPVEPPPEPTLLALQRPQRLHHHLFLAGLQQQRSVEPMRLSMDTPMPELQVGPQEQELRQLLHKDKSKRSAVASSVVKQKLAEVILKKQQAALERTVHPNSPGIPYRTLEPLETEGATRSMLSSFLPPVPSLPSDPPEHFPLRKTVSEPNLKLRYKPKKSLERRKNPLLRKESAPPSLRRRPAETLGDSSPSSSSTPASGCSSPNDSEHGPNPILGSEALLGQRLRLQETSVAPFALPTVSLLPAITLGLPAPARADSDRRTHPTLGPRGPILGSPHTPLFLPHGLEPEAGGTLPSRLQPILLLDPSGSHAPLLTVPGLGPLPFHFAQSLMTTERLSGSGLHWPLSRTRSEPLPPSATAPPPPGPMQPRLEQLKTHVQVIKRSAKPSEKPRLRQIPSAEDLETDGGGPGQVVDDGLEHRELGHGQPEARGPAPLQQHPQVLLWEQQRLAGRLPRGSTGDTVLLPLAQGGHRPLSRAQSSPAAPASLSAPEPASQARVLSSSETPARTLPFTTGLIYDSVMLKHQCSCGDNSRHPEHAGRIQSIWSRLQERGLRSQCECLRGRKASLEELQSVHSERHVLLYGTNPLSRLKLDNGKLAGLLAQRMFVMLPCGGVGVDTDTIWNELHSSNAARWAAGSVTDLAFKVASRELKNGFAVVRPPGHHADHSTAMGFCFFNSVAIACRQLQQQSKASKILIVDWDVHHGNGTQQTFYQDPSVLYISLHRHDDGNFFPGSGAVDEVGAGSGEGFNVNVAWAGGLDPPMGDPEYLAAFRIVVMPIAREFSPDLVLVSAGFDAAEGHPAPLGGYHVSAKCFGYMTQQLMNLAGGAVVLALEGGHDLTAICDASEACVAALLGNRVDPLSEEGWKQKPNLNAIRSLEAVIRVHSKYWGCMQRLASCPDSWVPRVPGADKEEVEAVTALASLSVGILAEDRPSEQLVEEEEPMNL
In words: HDAC activity assay, HDAC7.

For a further experiment, the target named is HDAC9 (Homo sapiens, UniProt Q9UKV0). In words: HDAC activity assay, HDAC9.

SMILES strings stand for the structures.

HDAC4, sequence (P56524 whole entry, species assumed): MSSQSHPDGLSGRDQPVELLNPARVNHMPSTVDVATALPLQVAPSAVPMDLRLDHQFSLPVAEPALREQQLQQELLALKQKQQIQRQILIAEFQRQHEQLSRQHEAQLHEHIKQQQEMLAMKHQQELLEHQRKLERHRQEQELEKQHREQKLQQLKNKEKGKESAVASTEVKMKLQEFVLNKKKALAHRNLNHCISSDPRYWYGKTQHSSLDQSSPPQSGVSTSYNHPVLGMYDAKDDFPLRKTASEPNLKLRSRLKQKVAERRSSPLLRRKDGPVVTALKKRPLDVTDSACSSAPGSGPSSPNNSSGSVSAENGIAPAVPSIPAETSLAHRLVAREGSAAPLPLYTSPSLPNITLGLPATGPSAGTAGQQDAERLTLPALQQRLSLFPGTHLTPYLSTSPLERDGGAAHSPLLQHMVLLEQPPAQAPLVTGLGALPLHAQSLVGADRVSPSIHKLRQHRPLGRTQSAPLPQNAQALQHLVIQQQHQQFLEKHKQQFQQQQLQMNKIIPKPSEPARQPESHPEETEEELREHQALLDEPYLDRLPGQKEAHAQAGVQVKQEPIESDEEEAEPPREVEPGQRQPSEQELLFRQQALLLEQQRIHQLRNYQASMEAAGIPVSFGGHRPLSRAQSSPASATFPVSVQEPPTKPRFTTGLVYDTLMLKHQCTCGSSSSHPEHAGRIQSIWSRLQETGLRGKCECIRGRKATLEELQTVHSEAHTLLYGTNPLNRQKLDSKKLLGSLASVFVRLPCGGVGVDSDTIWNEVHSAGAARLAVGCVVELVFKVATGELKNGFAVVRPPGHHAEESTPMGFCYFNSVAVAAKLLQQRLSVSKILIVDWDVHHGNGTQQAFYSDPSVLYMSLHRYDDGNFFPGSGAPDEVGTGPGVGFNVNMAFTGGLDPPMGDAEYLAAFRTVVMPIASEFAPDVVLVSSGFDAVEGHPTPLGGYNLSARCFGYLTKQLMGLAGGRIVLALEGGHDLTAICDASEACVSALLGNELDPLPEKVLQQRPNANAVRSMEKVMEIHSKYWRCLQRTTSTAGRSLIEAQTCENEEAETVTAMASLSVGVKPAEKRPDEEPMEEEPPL
HDAC9, sequence (Q9UKV0 whole entry): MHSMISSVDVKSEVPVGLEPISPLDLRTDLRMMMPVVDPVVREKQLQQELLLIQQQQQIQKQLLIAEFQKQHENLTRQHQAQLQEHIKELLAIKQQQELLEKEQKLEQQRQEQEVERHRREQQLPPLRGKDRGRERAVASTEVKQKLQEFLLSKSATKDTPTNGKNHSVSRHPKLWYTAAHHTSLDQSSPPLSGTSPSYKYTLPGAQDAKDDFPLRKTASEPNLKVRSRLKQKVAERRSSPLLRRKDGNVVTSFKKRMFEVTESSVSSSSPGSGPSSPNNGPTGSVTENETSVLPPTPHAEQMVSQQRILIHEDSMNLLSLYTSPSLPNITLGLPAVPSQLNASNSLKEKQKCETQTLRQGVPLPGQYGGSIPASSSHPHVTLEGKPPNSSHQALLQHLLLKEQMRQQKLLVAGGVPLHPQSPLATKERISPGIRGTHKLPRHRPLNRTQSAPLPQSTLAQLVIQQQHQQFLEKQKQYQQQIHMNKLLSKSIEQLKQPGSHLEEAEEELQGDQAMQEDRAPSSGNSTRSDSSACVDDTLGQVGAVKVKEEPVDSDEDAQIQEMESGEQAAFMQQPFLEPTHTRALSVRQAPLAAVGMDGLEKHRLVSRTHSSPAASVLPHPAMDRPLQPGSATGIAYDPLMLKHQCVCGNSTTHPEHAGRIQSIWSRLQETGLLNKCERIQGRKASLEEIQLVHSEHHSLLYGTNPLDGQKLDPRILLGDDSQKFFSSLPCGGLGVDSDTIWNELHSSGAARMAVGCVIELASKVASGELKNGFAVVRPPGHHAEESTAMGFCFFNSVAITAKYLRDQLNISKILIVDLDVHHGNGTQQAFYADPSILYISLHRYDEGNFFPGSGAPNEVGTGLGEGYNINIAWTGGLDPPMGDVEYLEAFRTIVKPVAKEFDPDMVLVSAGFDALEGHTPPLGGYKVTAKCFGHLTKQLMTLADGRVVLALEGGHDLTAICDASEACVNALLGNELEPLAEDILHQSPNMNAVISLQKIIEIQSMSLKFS

Turning to `O=C(NO)c1ccc(CN2c3ccccc3Oc3cc(-c4ccccc4)ccc32)cc1` [Compound 20, N-Hydroxy-4-[(3-phenyl-10H-phenoxazin-10-yl)methyl]benzamide], the IC50 (usually the point on the concentration scale where inhibition reaches its midpoint) worked out at 0.023 ± 0.003 µM against HDAC6, 8.06 ± 0.21 µM against HDAC4, 5.12 ± 0.02 µM at HDAC7 and 6.32 ± 2.06 µM against HDAC9.
For `O=C(NO)c1ccc(CN2c3ccccc3Oc3ccccc32)cc1` [Compound 7a, N-Hydroxy-4-[(10H-phenoxazin-10-yl)methyl]benzamide] the same measures were 0.017 ± 0.003 µM, 4.32 ± 0.11 µM, 0.79 ± 0.03 µM and 2.2 ± 0.01 µM.
For `O=C(NO)c1ccc(CN2c3ccccc3Oc3ccc(C(=O)Nc4ccccc4)cc32)cc1` [Compound 12b, N-Hydroxy-4-[(2-phenylcarbamoylphenoxazin-10-yl)methyl]benzamide] the same measures were 0.046 ± 0.002 µM, 3.66 ± 0.22 µM, 2.26 ± 0.01 µM and 3.49 ± 0.7 µM.
In the same order, the values of `O=C(NO)c1ccc(CN2c3ccccc3Oc3cc(C(=O)Nc4ccc(C(=O)c5ccccc5)cc4)ccc32)cc1` [Compound 12c, N-Hydroxy-4-{[3–(4-benzoylphenyl)carbamoyl-phenoxazin-10-yl]methyl}benzamide] are 0.0748 ± 0.002 µM, 2.07 ± 0.14 µM, 0.46 ± 0.02 µM and 15.2 ± 0.5 µM.
Turning to `O=C(NO)c1ccc(CN2c3ccccc3Oc3cc(C(=O)Nc4ccccc4)ccc32)cc1` [Compound 12d, N-Hydroxy-4-[(3-phenylcarbamoylphenoxazin-10-yl)methyl]benzamide], the IC50 against HDAC6 came to 0.0431 ± 0.003 µM; at HDAC4, 2.94 ± 0.52 µM; against HDAC7 it was 1.58 ± 0.3 µM; against HDAC9 it was 3.64 ± 0.06 µM.
For `NC(=O)c1ccc2c(c1)Oc1ccccc1N2Cc1ccc(C(=O)NO)cc1` [Compound 7e, N-Hydroxy-4-[(3-carbamoyl-10H-phenoxazin-10-yl)methyl]benzamide] the same measures were 0.008 µM, 1.41 ± 0.18 µM, 0.52 ± 0.01 µM and 1.04 ± 0.2 µM.
For `O=C(NO)c1ccc(CN2c3ccccc3Oc3cc(Br)ccc32)cc1` [Compound 18, N-Hydroxy-4-[(3-bromo-10H-phenoxazin-10-yl)methyl]benzamide] the same measures were 0.015 µM, 3.18 ± 0.33 µM, 1.75 ± 0.01 µM and 1.56 ± 0.19 µM.
As for `N#Cc1ccc2c(c1)Oc1ccccc1N2Cc1ccc(C(=O)NO)cc1` [Compound 16, N-Hydroxy-4-[(3-cyano-10H-phenoxazin-10-yl)methyl]benzamide], the IC50 against HDAC6 turned out to be 0.02 µM; against HDAC4 it was 3.23 ± 0.59 µM; against HDAC7 it was 1.22 ± 0.32 µM; on HDAC9, 4.08 ± 0.2 µM.
